Experimental findings from US8202834B2, “Fat regulation” (FibroGen, Inc., priority 2002, dated 2012) are described below.

The test system of test [1] is PPAR-γ. Description: PPAR-γ expression in tissue after 4 days of oral dosing. The following applies: cardiac tissue; oral gavage once per day for 4 days; FIG. 3C. The class given is in vivo, mouse. The method, then: (§1) To further investigate the effect of the methods and compounds of the present invention on expression of adipogenic factors, twelve Swiss Webster male mice (30-32 g) obtained from Simonsen, Inc. were treated by oral gavage once per day for 4 days with 4 ml/kg volume of either 0.5% CMC (0 mg/kg/day), 25 mg/ml compound D in 0.5% CMC (100 mg/kg/day), or 7.5 mg/ml and 25 mg/ml of compound B in 0.5% CMC (30 and 100 mg/kg/day, respectively). Four hours after the final dose, animals were anesthetized, sacrificed, and approximately 150 mg of adipose, heart, kidney, liver, lung, and muscle were isolated and stored in RNALATER solution (Ambion) at −20° C. RNA isolation and gene expression analysis was performed as described in Example 3 above.

Test [2] relates to DEC1/Stra13. Nature of the test: DEC1/Stra13 expression in tissues after 4 days of oral dosing. The class given is in vivo, mouse. Particulars: oral gavage once per day for 4 days, FIG. 3B. The procedure: as §1
Test [3] has as its system aldolase. Nature of the test: Aldolase expression in 293A cells, Western blot. The format is cell-based, human. The method, then:
In a further analysis of the methods and compounds effect on glucose regulation, human 293A cells were plated confluent in 35 mm culture dishes and cultured for 1 day at 37° C., 10% CO2 in DMEM containing 5% FBS and 1% penicillin-streptomycin. The media was changed to OPTI-MEM media (Invitrogen Life Technologies) and incubation was continued for an additional 18 to 24 hours. Vehicle control or compound B was then added to the media and cells were incubated for an additional 24, 48 or 72 hours. Plates were placed on ice, culture supernatant was removed, and lysis buffer-1 (LB-1: 10 mM Tris pH 7.4, 1 mM EDTA, 150 mM sodium chloride, 0.5% IGEPAL) was added. Cell lysates were harvested, cytosolic fractions were collected, and cytosolic proteins were separated using SDS-PAGE as described above. After separation, the proteins were transferred to a PVDF membrane at 400 mA for 1.5 hours at 4° C. The membrane was incubated in blocking buffer for 2 hours or overnight and washed once with T-TBS prior to addition of anti-aldolase antibody diluted to working concentration in blocking buffer. After overnight incubation with gentle agitation at 4° C., membranes were washed 4 times with T-TBS, followed by incubation for one hour at room temperature with conjugated secondary antibody diluted in blocking buffer. […]
For orientation: Immunoblotting shows a protein as a band on a membrane.

Test [4] concerns DEC1/Stra13. Nature of the test: DEC1/Stra13 expression time course in liver after oral gavage. The format is in vivo. The following applies: mouse liver, 100 mg/kg oral gavage, 4-72 h; FIG. 3A. The procedure: (§2) The ability of the present compounds and methods to regulate fat metabolism, in particular, to increase expression of factors involved in fat transport, utilization, and storage, was analyzed as follows. To determine gene induction patterns over time, twenty four Swiss Webster male mice (30-32 g) were obtained from Simonsen, Inc. and treated by oral gavage with a 4 ml/kg volume of either 0.5% carboxymethyl cellulose (CMC; Sigma-Aldrich, St. Louis Mo.) (0 mg/kg) or […] compound B (25 mg/ml in 0.5% CMC) (100 mg/kg). At 4, 8, 16, 24, 48, or 72 hours after the final dose, animals were anesthetized with isoflurane. The mice were then sacrificed and tissue samples of kidney, liver, brain, lung, and heart were isolated and stored in RNALATER solution (Ambion) at −80° C.
To further investigate the effect of the methods and compounds of the present invention on expression of genes associated with fat metabolism and adipogenesis, the experiments performed as described in Example 3 above were analyzed for specific adipogenic factors. […] DEC1/Stra13 is known to repress expression of PPAR-γ2 nuclear hormone receptor, which is necessary for adipocyte differentiation. […]

Test [5] relates to PFK-P, PFK-L, enolase-1, GluT-1, lactate dehydrogenase-1, aldolase-1, hexokinase-1. Description: Expression of glucose regulation genes in kidney, liver and lung after oral gavage. The class given is in vivo. Particulars: mouse kidney, liver, lung; 100 mg/kg oral gavage; FIGS. 10A-10C. The procedure: as §2
In the time course, most mRNA levels peaked early following administration of compound, then returned to control levels after 24 to 48 hours. […] These differences relate, in part, to the different degree to which glycolytic activity provides a critical source of energy for the respective tissue, especially during times of stress.

Test [6] concerns HIF-1α. Nature of the test: HIF-1α in nuclear fractions, TRANSAM HIF-1 ELISA. Particulars: 293A and Hep3B cells, vs vehicle; FIG. 8B. The class given is cell-based, human. The source says: Compounds of the present invention for use in the present methods stabilize HIFα, inhibit HIF hydroxylase activity and/or HIFα hydroxylation, etc. Thus, compounds can be identified, e.g., by their ability to stabilize HIFα. Stabilization of HIFα using compounds and methods of the present invention was examined as follows. Human cells derived from adenovirus-transformed fetal kidney epithelium (293A), cervical epithelial adenocarcinoma (HeLa), hepatocellular carcinoma (Hep3B), squamous carcinoma (SSC-25), and lung fibroblast (HLF) tissues (see, e.g., American Type Culture Collection, Manassas Va.; and Qbiogene, Carlsbad Calif.) were separately seeded into 100 mm culture dishes and grown at 37° C., 20% O2, 5% CO2 in media as follows: HeLa cells in Dulbecco's Modification of Eagle's Medium (DMEM), 2% fetal bovine serum (FBS); HLF cells in DMEM, 10% FBS; 293A cells in DMEM, 5% FBS; and Hep3B cells in Minimal Essential Medium (MEM), Earle's BSS (Mediatech Inc., Herndon Va.), 2 mM L-glutamine, 0.1 mM non-essential amino acids, 1 mM sodium pyruvate, 10% FBS. When cell layers reached confluence, the media was replaced with OPTI-MEM media (Invitrogen Life Technologies, Carlsbad Calif.) and cell layers were incubated for approximately 24 hours in 20% O2, 5% CO2 at 37° C. A compound of the invention (compound B, D, F, G, or H) or vehicle control (0.5 to 1% DMSO) was then added to existing medium, and incubation was continued overnight.
Alternatively, nuclear fractions were prepared using a nuclear extract kit (Active Motif, Carlsbad Calif.) and were analyzed for HIF-1α using a TRANSAM HIF-1 ELISA kit (Active Motif) according to the manufacturer's instructions.
(In general: An ELISA detects its analyte on a solid surface through an enzyme-linked reagent.)

For test [7], the system named is leptin. Nature of the test: Leptin secretion by preadipocytes in differentiation media. The format is cell-based, human. Particulars: 25 or 50 μM, up to 12 days, vs vehicle, FIG. 1B. The method, then: In a separate experiment, preadipocytes were plated in 24 well plates at 45,000 cells per well and cultured for 3 days in preadipocyte media (Zen-Bio). The media was then changed to differentiation media (Zen-Bio) and cells were treated with either vehicle control (0.5% DMSO) or compound B at 25 or 50 μM for up to 12 days. Half of the culture media was exchanged every 3 days and cell-free culture supernatants were generated and analyzed for levels of leptin secretion using a QUANTIKINE immunoassay (R&D Systems) according to the manufacturer's instructions.

In the case of `O=C(O)CNC(=O)c1nc(Cl)c2ccccc2c1O` [compound B, [(1-Chloro-4-hydroxy-isoquinoline-3-carbonyl)-amino]-acetic acid], the PPAR-γ expression entry in test [1] is on record as “decreased PPAR-γ expression”. Besides, the DEC1/Stra13 expression result was “increased DEC1/Stra13 expression” in test [2] (adipose, kidney, liver and muscle, 4 h after final dose); “increased DEC1/Stra13 expression” in test [2] (lung and heart). Besides, the aldolase expression result in test [3] (293A cells, 24, 48 and 72 hours, FIG. 9B) is listed as “increased over time”. The β-tubulin expression result in test [3] (293A cells, specificity control) is listed as “no increases”. For the same compound, in test [4], the “expression of DEC1/Stra13” value is “initially increased”. The “expression of genes encoding enzymes involved in glucose regulation” value in test [5] is “increased in a coordinated fashion”. The “stabilization and accumulation of HIFα” value in test [6] is “stabilization and accumulation of HIFα”. In addition, in test [7], the leptin secretion result was “dose-dependent increase in leptin secretion”.
